# From patent US5418232A, “Diazabicycloalkene derivatives” (Daiichi Pharmaceutical Co., Ltd., priority 1992, dated 1995)
# Key:
# Potassium channel = target: T1, Potassium channel (Rattus norvegicus, UniProt Q63563); test: Potassium channel opening activity, 86Rb release from excised rat aorta segment; type: cell-based, Wistar rat; conditions: for ECAUC0.2 (effective concentration at which the area under the peak of the 86Rb release rate reached 0.2): rat aorta segment surface-perfused with test compound for 10 minutes
# T1 construct: a segment of an excised aorta of a Wistar rat; from tissue; host or cells: excised aorta segment of Wistar rat
# T1 sequence (Q63563 1-1545 isoform Q63563-2): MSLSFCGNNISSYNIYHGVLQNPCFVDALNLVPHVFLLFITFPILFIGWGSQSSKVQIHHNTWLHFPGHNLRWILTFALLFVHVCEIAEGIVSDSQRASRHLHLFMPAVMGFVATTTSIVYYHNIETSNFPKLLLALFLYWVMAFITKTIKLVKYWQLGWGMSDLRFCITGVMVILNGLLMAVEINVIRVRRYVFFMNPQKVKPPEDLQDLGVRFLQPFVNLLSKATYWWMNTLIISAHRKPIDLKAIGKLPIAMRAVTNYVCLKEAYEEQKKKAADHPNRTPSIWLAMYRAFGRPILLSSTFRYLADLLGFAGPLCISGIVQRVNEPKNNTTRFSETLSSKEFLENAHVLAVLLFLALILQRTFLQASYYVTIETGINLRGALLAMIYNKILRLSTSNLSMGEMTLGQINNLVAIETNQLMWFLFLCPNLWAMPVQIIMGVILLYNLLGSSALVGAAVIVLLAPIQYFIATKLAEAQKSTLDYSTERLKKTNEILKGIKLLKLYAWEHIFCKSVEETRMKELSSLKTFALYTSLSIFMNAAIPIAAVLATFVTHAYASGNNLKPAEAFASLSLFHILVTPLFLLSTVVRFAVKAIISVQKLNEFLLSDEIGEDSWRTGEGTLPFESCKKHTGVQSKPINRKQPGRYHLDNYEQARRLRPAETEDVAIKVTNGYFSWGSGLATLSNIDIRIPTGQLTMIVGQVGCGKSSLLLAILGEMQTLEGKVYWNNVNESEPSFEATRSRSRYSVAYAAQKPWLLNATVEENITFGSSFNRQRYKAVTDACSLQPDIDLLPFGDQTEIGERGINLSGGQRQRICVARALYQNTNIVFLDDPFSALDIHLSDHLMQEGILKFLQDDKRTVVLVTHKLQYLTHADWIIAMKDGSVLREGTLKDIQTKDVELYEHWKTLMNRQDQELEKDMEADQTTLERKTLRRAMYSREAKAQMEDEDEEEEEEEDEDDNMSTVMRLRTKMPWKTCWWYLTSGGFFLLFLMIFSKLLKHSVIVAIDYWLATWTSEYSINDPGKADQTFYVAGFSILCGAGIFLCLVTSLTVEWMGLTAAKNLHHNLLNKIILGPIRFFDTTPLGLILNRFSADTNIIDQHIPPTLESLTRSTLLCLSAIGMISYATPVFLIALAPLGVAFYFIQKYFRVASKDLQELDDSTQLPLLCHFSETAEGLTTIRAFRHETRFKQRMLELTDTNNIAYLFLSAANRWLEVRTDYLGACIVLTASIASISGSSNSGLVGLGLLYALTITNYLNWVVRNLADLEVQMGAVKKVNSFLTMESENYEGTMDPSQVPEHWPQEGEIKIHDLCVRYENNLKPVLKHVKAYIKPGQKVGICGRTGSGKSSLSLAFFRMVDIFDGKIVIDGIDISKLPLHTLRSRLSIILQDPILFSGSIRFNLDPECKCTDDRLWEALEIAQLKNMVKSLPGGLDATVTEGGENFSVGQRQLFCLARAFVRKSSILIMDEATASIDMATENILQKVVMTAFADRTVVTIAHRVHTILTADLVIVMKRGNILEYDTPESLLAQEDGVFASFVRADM
# T1 sequence (Q63664 whole entry partner, the tested form may be a part): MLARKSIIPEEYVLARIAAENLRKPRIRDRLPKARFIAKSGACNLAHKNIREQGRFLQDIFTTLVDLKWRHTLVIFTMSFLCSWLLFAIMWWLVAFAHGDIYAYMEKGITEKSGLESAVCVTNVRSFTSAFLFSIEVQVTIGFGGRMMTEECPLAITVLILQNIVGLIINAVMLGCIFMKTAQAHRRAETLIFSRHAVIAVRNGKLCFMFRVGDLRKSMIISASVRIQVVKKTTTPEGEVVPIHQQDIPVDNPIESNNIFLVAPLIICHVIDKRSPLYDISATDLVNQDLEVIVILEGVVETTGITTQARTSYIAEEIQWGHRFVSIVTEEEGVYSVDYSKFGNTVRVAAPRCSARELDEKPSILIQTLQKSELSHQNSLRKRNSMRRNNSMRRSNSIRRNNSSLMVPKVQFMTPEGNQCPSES
# male HOS-Donryu rats = test: Antianginal activity, vasopressin-induced ST segment depression; type: in vivo, rat; conditions: for S Value (area of ST segment depression over 5 minutes): i.v., Example 47 0.01, Nifedipine 0.03, Cromakalim 0.01 mg/kg, vasopressin 0.5 U/kg
# Description: The test was carried out in accordance with the method of Hiramatsu, et al. (see Japanese Journal of Pharmacology, Vol. 20, p. 313 (1970)). […] A cannula for blood pressure measurement was inserted into the left femoral artery, and a cannula for drug administration was inserted into the left femoral vein. […] Then, ECG was taken every 30 seconds over a period of 5 minutes to observe depression of the ST segment. A control group was given the solvent for the drug (a solution in which 5% dimethyl sulfoxide, 5% polyethylene glycol 200 and 1% cremophor were dissolved in physiological saline).
# Guinea Pig Tracheae = test: Relaxing activity in guinea pig tracheae contracted with 30 mM potassium chloride; type: cell-based; conditions: Cavia porcellus; relaxation by 10^-8 g/ml isoproterenol as 100%; read-out: EC50 (concentration inducing 50% relaxation)
# Description: Male guinea pigs (body weight: 400-650 g) were sacrificed by exsanguination, and tracheae were excised.
# Tracheal responses were measured isometrically using a transducer "EF-601G" (manufactured by Nihon Koden Kogyo Co., Ltd.) and recorded on a multi-pen recorder "R64 GP" (manufactured by Rika Denki Co., Ltd.). The initial tension in the tracheal preparation was set up at 1 g after the preparation had equilibrated for about 60 minutes, a 30 mM potassium chloride was added to cause contraction.
# [1] = tested on: spontaneously hypertensive rats; test: Blood pressure fall after i.v. compound with or without glibenclamide pretreatment; type: in vivo, rat
# Description: 2) Twenty-two-week-old male spontaneously hypertensive rats (body weight, 350-420 g) were given an intravenous injection of 30 mg/kg of glibenclamide (Sigma Chemical Company) having an antagonistic activity against potassium channel openers or, as a control, a solvent.
# male mice = test: Acute toxicity; type: in vivo; conditions: oral 2 g/kg
# Acute toxicity = type: in vivo; conditions: mouse, in vivo, po
# [2] = tested on: spontaneously hypertensive rats; test: Effect on renal blood flow (Doppler probe); type: in vivo, rat; conditions: for Increase in Renal Blood Flow 1 Hr after Administration: oral, dose which reduced blood pressure by about 50 mmHg; for activity in increasing the renal blood flow vs reference drug (in words): vs EMD57283
# Description: Twenty-week-old male spontaneously hypertensive rats (body weight: 350-430 g) were anesthetized with pentobarbital (30 mg/kg, i.p.). An incision was made in the abdomen on the left side, and a Doppler probe for blood flow measurement was fitted to the left renal artery, and the code (wire lead) of the probe was passed under the back skin and taken out from the back of the neck. After 1 week from the operation, the code of the probe was connected to a Doppler blood flow meter to start measurement of the renal blood flow. After the renal blood flow reached to a steady state, a test compound was orally administered, and changes in renal blood flow were observed up to 9 hours. The test compound was used at a dose which reduced blood pressure by about 50 mmHg.
# [3] = tested on: spontaneously hypertensive rats; test: Antihypertensive activity in spontaneously hypertensive rats (oral, tail-cuff); type: in vivo, rat
# Description: Male spontaneously hypertensive rats (16 to 20-week-old; body weight: 300-400 g) fed ab lib. were forceably given oral administration of a test compound suspended in 0.5% (w/v) carboxymethyl cellulose aqueous solution. After 1, 2, 4, 6, 8, 24, 30 or 48 hours from the administration, the systolic blood pressure was measured by a tail-cuff method described in Arzneimittel-Forschung, Vol. 18, pp. 1285-1287 (1968)).
# The antihypertensive activity of the test compound was obtained as an effective dose for reducing blood pressure by 50 mmHg (ED50mmHg). Further, the time of onset of the maximum activity and the maximum increase in heart rate at a dose for reducing blood pressure by 50 to 60 mmHg were measured.
# The statistical difference between a test compound and EMD57283 was analyzed by the Student's t-test.
# [4] = dose reducing blood pressure by 50 to 60 mmHg
smiles,measurement,setting,value
"CC1(C)Oc2ccc(C#N)cc2[C@@H](N2CCCC2=O)[C@@H]1O (relative stereo) [Cromakalim, 3,4trans-3,4-Dihydro-2,2-dimethyl-3-hydroxy-4-(2-oxopyrrolidin-1-yl)-2H-1benzopyran-6-carbonitrile, reference compound]",ECAUC0.2 (effective concentration at which the area under the peak of the 86Rb release rate reached 0.2),Potassium channel,2.8
same,S Value (area of ST segment depression over 5 minutes),male HOS-Donryu rats,562 μV.min
same,EC50,Guinea Pig Tracheae,49 µM
"CC1(C)Oc2ccc(C#N)cc2[C@@H](OC2=NN(Cc3ccccc3)C(=O)C3CC23)[C@@H]1O (relative stereo) [Example 1, 3,4-trans-4-(3-Benzyl-2-oxo-3,4-diazabicyclo[4.1.0]hept-4-en-5-yloxy)-3,4-dihydro-2,2-dimethyl-3-hydroxy-2H-1-benzopyran-6-carbonitrile]",Average Blood Pressure Fall,"[1]; 1 Hr., 0.1 mg/kg i.v. + Glibenclamide 30 mg/kg i.v.",15.9 ± 3.7 mmHg
same,Average Blood Pressure Fall,"[1]; 1 Hr., 0.1 mg/kg i.v. + solvent",41.4 ± 6.1 mmHg
same,Average Blood Pressure Fall,"[1]; 2 Hrs., 0.1 mg/kg i.v. + Glibenclamide 30 mg/kg i.v.",22.0 ± 5.7 mmHg
same,Average Blood Pressure Fall,"[1]; 2 Hrs., 0.1 mg/kg i.v. + solvent",50.4 ± 4.4 mmHg
same,Average Blood Pressure Fall,"[1]; 3 Hrs., 0.1 mg/kg i.v. + Glibenclamide 30 mg/kg i.v.",28.0 ± 5.3 mmHg
same,Average Blood Pressure Fall,"[1]; 3 Hrs., 0.1 mg/kg i.v. + solvent",55.9 ± 4.3 mmHg
same,Average Blood Pressure Fall,"[1]; 4 Hrs., 0.1 mg/kg i.v. + Glibenclamide 30 mg/kg i.v.",26.9 ± 5.7 mmHg
same,Average Blood Pressure Fall,"[1]; 4 Hrs., 0.1 mg/kg i.v. + solvent",55.1 ± 4.7 mmHg
same,potassium channel opening activity (in words),"[1]; conclusion from Table 6, glibenclamide antagonism",possesses potassium channel opening activity
same,safety (in words),male mice,highly safe
same,LD50 at 336 h,Acute toxicity,> 2000 mg/kg
same,Increase in Renal Blood Flow 1 Hr after Administration,[2],34.0 ± 6.1%
same,activity in increasing the renal blood flow vs reference drug (in words),[2],more potent activity in increasing the renal blood flow than the reference drug
"CN1N=C(O[C@@H]2c3cc(C#N)ccc3OC(C)(C)[C@H]2O)C2CC2C1=O (relative stereo) [Example 2, 3,4-trans-3,4-dihydro-2,2-dimethyl-3-hydroxy-4-(3-methyl-2-oxo-3,4-diazabicyclo[4.1.0]hept-4-en-5-yloxy)-2H-1-benzopyran-6-carbonitrile]",safety (in words),male mice,highly safe
same,LD50 at 336 h,Acute toxicity,> 2000 mg/kg
"CC1(C)Oc2ccc(C#N)cc2[C@@H](OC2=NN(Cc3ccccc3Cl)C(=O)C3CC23)[C@@H]1O (relative stereo) [Example 33, (3S,4R,1'R*,6'S*)-4-(3-(2-chlorobenzyl)-2-oxo-3,4-diazabicyclo[4.1.0]hept-4-en-5-yloxy)-3,4-dihydro-2,2-dimethyl-3-hydroxy-2H-1-benzopyran-6-carbonitrile]",antihypertensive activity (in words),[3],potent antihypertensive activity
same,duration of activity (in words),[3],long duration of activity
same,ED (50 mmHg),"[3]; Rattus norvegicus, systolic blood pressure, read-out: ED50mmHg (effective dose for reducing blood pressure by 50 mmHg)",0.031 mg/kg
same,Max. increase of Heat Rate,[3]; [4],19.4 ± 3.1%
same,Time for Onset of Max. Activity,[3]; [4],6.6 ± 0.5 h
same,safety (in words),male mice,highly safe
same,LD50 at 336 h,Acute toxicity,> 2000 mg/kg
same,Increase in Renal Blood Flow 1 Hr after Administration,[2],14.5 ± 4.0%
same,activity in increasing the renal blood flow vs reference drug (in words),[2],more potent activity in increasing the renal blood flow than the reference drug
"CC1(C)Oc2ccc(C#N)cc2[C@@H](OC2=NNC(=O)C3CC23)[C@@H]1O (relative stereo) [Example 47, (3S,4R,1'R*,6'S*)-3,4-Dihydro-2,2-dimethyl-3-hydroxy-4-(2-oxo-3,4-diazabicyclo[4.1.0]-hept-4-en-5-yloxy)-2H-1-benzopyran-6-carbonitrile]",potassium channel opening activity (in words),Potassium channel; conclusion from Table 5,possesses potassium channel opening activity
same,ECAUC0.2 (effective concentration at which the area under the peak of the 86Rb release rate reached 0.2),Potassium channel,0.21
same,antianginal activity (in words),male HOS-Donryu rats; 0.01 mg/kg i.v.,significantly reduces the S value
same,S Value (area of ST segment depression over 5 minutes),male HOS-Donryu rats,109 μV.min
same,Increase in Renal Blood Flow 1 Hr after Administration,[2],24.3 ± 13.7%
same,activity in increasing the renal blood flow vs reference drug (in words),[2],more potent activity in increasing the renal blood flow than the reference drug
